Like-named read-outs stand apart in the source and are kept apart here.
Experiments:
myocardial tissue = conditions: acetylcholine 1 μM, cited from earlier work
[1] = in vivo; cited from earlier work
[2] = oral pirenzepine 100-300 mg co-administered with donepezil, healthy volunteers

Row | Structure (SMILES) | suppression of the effect of acetylcholine (myocardial tissue; antagonist 1 μM) | also measured
1 | CCN(CC)CCCCC1CCN(CC(=O)N2c3ccccc3C(=O)Nc3cccnc32)CC1 [AQ-RA 741, 11-[[4-[4-(diethylamino)butyl]-1-piperidinyl]acetyl]-5,11-dihydro-6H-pyrido[2,3-b] [1,4]benzodiazepin-6-one] | partial suppression of the effect of acetylcholine | –
2 | CN1[C@@H]2CC[C@H]1C[C@@H](OC(=O)C(CO)c1ccccc1)C2 (stereo partly drawn) [atropine] | completely abolished the effect of acetylcholine | –
3 | O=C(O[C@H]1CN2CCC1CC2)N1CCc2ccccc2[C@@H]1c1ccccc1 [solifenacin] | – | effect on QTc [1]: increase in QTc
4 | CN1CCN(CC(=O)N2c3ccccc3C(=O)Nc3cccnc32)CC1 [pirenzepine, 11-[(4-methylpiperazin-1-yl)acetyl]-5,11-dihydro-6H-pyrido[2,3-b][1,4]benzodiazepin-6-one] | did not suppress the effect of acetylcholine | increase in the tolerated dose of donepezil [2]: enabling the safe increase in the dose of donepezil
5 | C[N+]1(C)CCC(OC(=O)C(c2ccccc2)c2ccccc2)CC1.[I-] [4DAMP, 4-[(Diphenylacetyl)oxy]-1,1-dimethylpiperidin-1-ium iodide] | – | suppression of the effect of acetylcholine (myocardial tissue; antagonist 0.1 μM): did not suppress the effect of acetylcholine
